Patent US20120322827A1, “COMPOUNDS AND METHODS” (priority 2010, published 2012)

Target: T1, Recombinant HDAC9 isoform 4 (Homo sapiens, UniProt Q9UKV0)
T1 construct: purchased BPS Bioscience
Test: Histone Deacetylase 9 (HDAC9) inhibition assay, fluorogenic substrate
Type: biochemical
Details: mean of a minimum of 2 experiments; 11 point 3x dilution series from 100 uM; 45 minutes incubation at room temperature; read-out: mean pIC50 of HDAC9 inhibition (converted)
Excerpt: Histone Deacetylase 9 (HDAC9) Inhibition Assay:
Novel histone deacetylase 9 (HDAC9) inhibitors were characterized in an in vitro biochemical functional assay. The assay measures the increased fluorescent signal due to deacetylation, by HDAC9, of a fluorogenic substrate. The commercial available substrate is Class IIa HDAC-specific and contains an acetylated lysine residue and would releases the fluorescent signal upon trypsin cleavage after deacetylation.
Specifically, test compounds diluted to various concentrations in 100% DMSO are first dispensed into 384-well assay plates. Recombinant HDAC9 isoform 4 (purchased from BPS Bioscience) in complete assay buffer (50 mM Tris-HCl, pH 8.0, 137 mM NaCl, 2.7 mM KCl, 1 mM MgCl2, 0.05% BSA & 0.005% Tween 20) were then added to each well (5 uL/well) using Multidrop Combi (Thermo Scientific), followed by 5 uL/well substrate (purchased from BPS Bioscience, 4.5 uM final). After 45 minutes incubation at room temperature, 10 uL 2× developer solution (assay buffer with 40 uM Trypsin and 20 uM Trichostatin A) was added. The plates were then incubated 1 hour at room temperature before reading in fluorescent intensity mode at 450 nm in an Envision (Perkin Elmer) plate reader. Percent Inhibition of HDAC9 activity by compounds in each test wells was calculated by normalizing to fluorescent signal in control wells containing DMSO only.
For dose response experiments, normalized data were fit by ABASE/XC50 using the equation y=a+(b−a)/(1+(10̂×/10̂c)̂d), where a is the minimum % activity, b is the maximum % activity, c is the pIC50, d is the Hill slope.

T1 sequence (Q9UKV0 1-1066 isoform Q9UKV0-5): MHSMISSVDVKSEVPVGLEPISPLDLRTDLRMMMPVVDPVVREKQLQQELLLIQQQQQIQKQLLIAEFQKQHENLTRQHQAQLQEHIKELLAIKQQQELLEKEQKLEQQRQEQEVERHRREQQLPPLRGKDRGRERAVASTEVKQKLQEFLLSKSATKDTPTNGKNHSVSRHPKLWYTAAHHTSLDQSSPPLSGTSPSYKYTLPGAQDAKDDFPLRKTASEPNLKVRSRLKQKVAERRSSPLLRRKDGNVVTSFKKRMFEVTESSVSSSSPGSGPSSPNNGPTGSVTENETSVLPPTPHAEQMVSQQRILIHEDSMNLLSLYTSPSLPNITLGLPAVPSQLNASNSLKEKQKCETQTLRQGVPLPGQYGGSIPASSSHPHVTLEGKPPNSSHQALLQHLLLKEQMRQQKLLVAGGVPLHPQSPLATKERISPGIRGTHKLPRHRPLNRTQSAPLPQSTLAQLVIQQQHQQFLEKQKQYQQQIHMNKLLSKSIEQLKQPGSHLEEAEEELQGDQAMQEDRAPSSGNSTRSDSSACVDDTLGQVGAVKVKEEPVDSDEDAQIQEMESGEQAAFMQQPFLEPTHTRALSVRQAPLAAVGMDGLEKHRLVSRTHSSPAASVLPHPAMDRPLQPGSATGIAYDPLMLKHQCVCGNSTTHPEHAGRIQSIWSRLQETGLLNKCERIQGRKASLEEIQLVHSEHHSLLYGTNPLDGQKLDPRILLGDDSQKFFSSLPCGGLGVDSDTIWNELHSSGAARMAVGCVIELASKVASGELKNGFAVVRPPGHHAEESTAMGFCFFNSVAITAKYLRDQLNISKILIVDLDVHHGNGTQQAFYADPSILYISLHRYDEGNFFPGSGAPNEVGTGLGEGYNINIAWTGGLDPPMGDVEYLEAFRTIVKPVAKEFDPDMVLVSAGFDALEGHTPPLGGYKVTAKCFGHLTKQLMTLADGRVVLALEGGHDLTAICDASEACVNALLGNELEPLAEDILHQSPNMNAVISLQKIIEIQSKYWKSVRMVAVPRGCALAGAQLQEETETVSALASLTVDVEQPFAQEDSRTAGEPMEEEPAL

Structure (SMILES) | IC50 [µM]
CN(C)CCC(CNC(=O)CCCc1noc(C(F)(F)F)n1)c1coc(-c2ccc(F)cc2)n1 (stereo not shown) [Example 4, N-(4-(Dimethylamino)-2-(2-(4-fluorophenyl)oxazol-4-yl)butyl)-4-(5-(trifluoromethyl)-1,2,4-oxadiazol-3-yl)butanamide] | < 1
CN(C)CCC(CNC(=O)CCCc1ccc(C(=O)C(F)(F)F)s1)c1coc(-c2ccc(F)cc2)n1 (stereo not shown) [Example 18, N-(4-(Dimethylamino)-2-(2-(4-fluorophenyl)oxazol-4-yl)butyl)-4-(5-(2,2,2-trifluoroacetyl)thiophen-2-yl)butanamide] | < 1
CC(C)(CNC(=O)CCCc1noc(C(F)(F)F)n1)c1coc(-c2ccc(F)cc2)n1 [Example 3, N-(2-(2-(4-Fluorophenyl)oxazol-4-yl)-2-methylpropyl)-4-(5-(trifluoromethyl)-1,2,4-oxadiazol-3-yl)butanamide] | < 1
CN1CCC(CNC(=O)CCCc2noc(C(F)(F)F)n2)(c2coc(-c3ccc(F)cc3)n2)CC1 [Example 5, N-((4-(2-(4-Fluorophenyl)oxazol-4-yl)-1-methylpiperidin-4-yl)methyl)-4-(5-(trifluoromethyl)-1,2,4-oxadiazol-3-yl)butanamide] | < 1
